Converted amounts (≈) assume the structure as drawn.
Legend:
[1] = Pharmacokinetic study, oral dosing in Sprague-Dawley rats (AUC/D); assay type: in vivo; settings: dosed orally in rats; dose-normalized plasma AUC
Protocol: (§1) Compounds were dosed orally to Sprague-Dawley rats, using appropriate formulations and doses. Serial blood samples were collected at selected time points post-dosing. Plasma was separated from the blood by centrifugation. 25 μL of plasma (sample, standard or QC) was combined with 25 μL of internal standard and 250 μL acetonitrile. Following vortexing to mix, the plates were centrifuged to separate the precipitated proteins. A 50 μL aliquot of the supernatant was transferred to a clean 96-well plate and diluted with 100 μL 0.1% formic acid. Stock standards were prepared in DMSO, with intermediate dilutions in acetonitrile:water (50:50, by volume). Samples were analyzed by LC-MS. The drug level curves were used to calculate dose-normalized area under the curve (AUC/D) data, which are reported as μg-hr/mL per mg/kg.

[2] = Parent vs. metabolite levels in plasma after oral dosing in rats; assay type: in vivo; settings: oral 20 mg/kg, based on AUC(0-∞), 10 plasma samples over 12 hours, vs 4″-debenzylated metabolite
Protocol: Pharmacokinetic properties of compounds having three non-hydrogen substituents at the alpha-position of the ester (i.e., a tri-substituted ester) were further examined. A compound having a 4″-tri-substituted ester moiety (Compound 14) was compared to a di-substituted control compound. The compounds were dosed orally, 20 mg/kg, in rats.
Pharmacokinetic properties of compounds having a 4″-benzyl moiety were further examined. A compound having a 4″-halobenzyl moiety (Compound 10) was compared to a compound having an unsubstituted 4″-benzyl moiety. The compounds were dosed orally, 20 mg/kg, in rats.

[3] = tested on: H. influenza ATCC49247; assay: Broth microdilution MIC; assay type: cell-based; settings: Haemophilus influenzae, 35° C., approximately 20 hours
Protocol: (§2) Minimum inhibitory concentration (“MIC”) values for the isolates were determined using a broth microdilution method. The wells of a standard 96-well microdilution plate (Costar 3795, Corning Inc., Corning, N.Y.) were filled with 150 μL of an appropriate diluent. For test compounds supplied as powders, Column 1 was filled with 300 μL of either the investigational or comparator agents at the appropriate stock concentration (40× the highest test concentration). A Biomek 200 was used to make eleven 2-fold serial dilutions to create a “mother plate”. For compounds supplied as DMSO stocks, compounds were diluted to 50× the highest test concentrations and 2-fold serial dilutions were made manually.
(§3) For compounds supplied as solids, “daughter plates” were loaded with 185 μL using the Multidrop 384. These daughter plates were prepared on the Biomek F/X instrument which transferred 5 μL of drug solution from each well of the mother plate to each corresponding well of each daughter plate in a single step. For compounds supplied as DMSO stock, daughter plates were filled with 90 μL of media and 2 μL of drug solution from each well of the mother plate was added to each corresponding well manually.
(§4) A suspension of standardized inoculum for each organism, equivalent to a 0.5 McFarland standard, was diluted 1:10 in Mueller Hinton II broth resulting in a final concentration of approximately 5×10^5 CFU/mL during testing. Inocula were transferred to compartments of sterile reservoirs divided by length. The Biomek 2000 was used to inoculate all plates. Daughter plates were placed on the Biomek 2000 in reverse orientation so that plates were inoculated from low to high drug concentration. The Biomek 2000 delivered 10 μL of standardized inoculum into each well of the appropriate daughter plate. The final concentration of DMSO (if used as a solvent) in the test wells was 2.5%.
(§5) Plates were stacked 3 high, covered with a lid on the top plate, placed into plastic bags, and incubated at 35° C. for approximately 20 hours. […] MIC values were read where visible growth of the organism was inhibited.

[4] = tested on: E. faecalis ATCC29212; assay: Broth microdilution MIC; assay type: cell-based; settings: Enterococcus faecalis, 35° C., approximately 20 hours
Protocol: as §2, §3, §4, §5

[5] = tested on: S. epidermis ATCC49134; assay: Broth microdilution MIC; assay type: cell-based; settings: Staphylococcus epidermidis, 35° C., approximately 20 hours
Protocol: as §2, §3, §4, §5

[6] = tested on: S. pneumonia ATCC49619; assay: Broth microdilution MIC; assay type: cell-based; settings: Streptococcus pneumoniae, 35° C., approximately 20 hours
Protocol: as §2, §3, §4, §5

[7] = tested on: S. aureus ATCC29213; assay: Broth microdilution MIC; assay type: cell-based; settings: Staphylococcus aureus, 35° C., approximately 20 hours
Protocol: as §2, §3, §4, §5

[8] = Pharmacokinetic study, oral dosing in BALB/c mice (AUC/D); assay type: in vivo; settings: dosed orally in mice; when Compound 43 was dosed, levels of Compound 19 were measured; when Compound 46 was dosed, levels of Compound 10
Protocol: as §1, with “Alternatively, compounds” for “Compounds”, “BALB/c mice,” for “Sprague-Dawley rats,”
When Compound 43 was dosed, levels of Compound 19 were measured; when Compound 46 was dosed, levels of Compound 10 were measured. Thus, Compounds 43 and 46 serve as prodrugs for Compounds 19 and 10, respectively. Administration of 4′″-modified prodrugs provided greater exposure to the 4′″ deacylated metabolite as compared to administration of the corresponding metabolite itself. […]

[9] = tested on: Staphylococcus aureus ATCC 25923; assay: Agar disc diffusion assay (zone of inhibition); assay type: cell-based; settings: 10 μg on 7 mm paper disc (antibacterial standard)
Protocol: Antibacterial tests were performed on a series of tylosin A derivatives via the ‘agar disc diffusion’ assay. This assay is employed to determine the sensitivity of pathogens to chemical entities under investigation and is a standardized procedure outlined in 1961 by the World Health Organization.
Bacteria tested were a standard gram positive organism; Staphylococcus aureus ATCC 25923 (available from the American Type Culture Collection).
Colonies of bacteria are dispensed into liquid Mueller-Hinton II broth (available from Becton, Dickinson and Company), agitated and then streaked onto prepared Mueller-Hinton agar plates. Bacteria were allowed to grow for 16 hours at 37 degrees C. A sterile loupe was used to select 4-5 isolates from the cultures thus grown, and dispensed into Mueller-Hinton broth. […]
To obtain a dose response curve against Staphylococcus aureus, 20 μL (20 nanomoles) of each tylosin A derivative to be tested as obtained from the company compound repository at 1 mM stock solution in DMSO was dispensed onto a 7 mm blank paper disc (available from BBL, Le Pont du Claire, France). […] At this time, the ‘zone of inhibition’ around each 7 mm paper disc (inclusive of the disc itself) was measured and recorded in Table 6 below.

Compound | AUC/D [1] | Parent % [2] | MIC [3] | MIC [4] | MIC [5] | MIC [6] | MIC [7] | AUC/D [8] | Zone of inhibition [9]
CC[C@H]1OC(=O)C[C@@H](O)[C@H](C)[C@@H](O[C@@H]2O[C@H](C)[C@@H](O[C@H]3C[C@@](C)(O)[C@@H](OCc4ccccc4)[C@H](C)O3)[C@H](N(C)C)[C@H]2O)[C@@H](CC=O)C[C@@H](C)C(=O)/C=C/C(C)=C/[C@@H]1CO[C@@H]1O[C@H](C)[C@@H](O)[C@@H](OC)[C@H]1OC [Compound G, Tylosin A 4″ O-Benzyl] | 0.05 μg-hr/mL per mg/kg | 95% | 16 µg/mL (≈ 15.9 µM) | 2 µg/mL (≈ 1.99 µM) | 2 µg/mL (≈ 1.99 µM) | 0.25 µg/mL (≈ 0.248 µM) | 4 µg/mL (≈ 3.98 µM) | – | –
CC[C@H]1OC(=O)C[C@@H](O)[C@H](C)[C@@H](O[C@@H]2O[C@H](C)[C@@H](O[C@H]3C[C@@](C)(O)[C@@H](O)[C@H](C)O3)[C@H](N(C)C)[C@H]2O)[C@@H](CC=O)C[C@@H](C)C(=O)/C=C/C(C)=C/[C@@H]1CO[C@@H]1O[C@H](C)[C@@H](O)[C@@H](OC)[C@H]1OC [Tylosin A, 2-((4R,5S,6S,7R,9R,11E,13E,15R,16R)-6-(((2R,3R,4R,5S,6R)-5-(((2S,4R,5S,6S)-4,5-dihydroxy-4,6-dimethyltetrahydro-2H-pyran-2-yl)oxy)-4-(dimethylamino)-3-hydroxy-6-methyltetrahydro-2H-pyran-2-yl)oxy)-16-ethyl-4-hydroxy-15-((((2R,3R,4R,5R,6R)-5-hydroxy-3,4-dimethoxy-6-methyltetrahydro-2H-pyran-2-yl)oxy)methyl)-5,9,13-trimethyl-2,10-dioxooxacyclohexadeca-11,13-dien-7-yl)acetaldehyde] | 0.0097 μg-hr/mL per mg/kg | – | 16 µg/mL (≈ 17.5 µM) | 1 µg/mL (≈ 1.09 µM) | 1 µg/mL (≈ 1.09 µM) | 0.25 µg/mL (≈ 0.273 µM) | 2 µg/mL (≈ 2.18 µM) | 0.0054 μg-hr/mL per mg/kg | –
Gentamicin | – | – | – | – | – | – | – | – | 23 mm

Source: patent publication US20160200757A1, “TYLOSIN A ANALOGS AND DERIVATIVES” (AbbVie Inc., priority 2014, published 2016)
